US10010585B2, “Methods of treating vestibular schwannoma and reducing hearing or neurite loss caused by vestibular schwannoma” (Massachusetts Eye and Ear Infirmary, priority 2014, dated 2018)
Values joined by “and” are separate entries in the source; they are usually repeats but may differ in a detail not shown here. Equal entries are not always repeated.

How the values were obtained:
[1] = tested on: primary VS cells; experiment: BrdU proliferation assay in primary VS cultures; format: cell-based, human; settings: 48 hours
Protocol: Proliferation rate of 12 VS cultures was assessed and correlated with the tumor volume in the latest gadolinium enhanced T1-weighted MRI scan prior to surgical resection, and with tumor growth in vivo, measured as changes in the tumor's volume over time calculated from serial MRI scans. Tumor growth was standardized by dividing the growth rate by the initial tumor volume. Separate analyses were performed for solid tumors, which generally account for approximately 96% of VSs (Charabi et al., 1994), versus all studied tumors, which included 4 out of 13 total tumors with a visible cystic component, because cystic components could misrepresent true tumor volume (Charabi et al., 1994). To determine the level of cell proliferation in the cultures, Bromodeoxyuridine (BrdU) was added to the cells at a concentration of 10 μg/ml 20 hours before the cells were fixed. The cells were kept in the dark after the addition of BrdU Immunofluorescence protocol was followed as described under ‘Immunofluorescence,’ and cell and nuclear membranes were permeablized by incubation in 1% Triton-X for 10 minutes and by incubation in 2N Hydrochloric acid for 20 minutes, respectively, after fixation. Primary antibody against BrdU (AbD Serotec, NC, 1:200) and anti-rat IgG (Life Technologies, NY, 1:1000) were used. BrdU- and Hoechst-stained nuclei were counted in 3-5 fields and the ratio of BrdU positive to Hoechst positive nuclei was used to determine the proliferation rate in vitro. […]
(§1) Cultured human primary VS cells, primary SCs and HEI-193 cells were treated with NF-κB inhibitors BAY11-7082 (BAY11) or curcumin for 48 hours (Santa Cruz Biotechnology). BAY11 or curcumin, diluted in 100% DMSO, were mixed to the accurate concentrations in warmed media and applied to the cultures (with DMSO concentration in media being 1% maximum), alongside a no-treatment control receiving media alone with appropriate corresponding DMSO levels. Experiments were performed in media fortified with antibiotics and serum (same formulation as described in Example 1 for culturing cells).
(§2) After 48 hours of treatment, primary VS and Schwann cultures were fixed for BrdU staining, to visualize proliferation, or TUNEL staining, to visualize cell death. The same methodology as described in Example 1 was utilized. Cleaved caspase 3 staining, another apoptosis marker to reinforce findings using TUNEL, was conducted using an antibody against cleaved caspase 3 following the ‘immunofluorescence’ protocol outlined in Example 1.
(§3) The cultures were incubated with the drugs for 48 hours. To label proliferating cells, BrdU was added 20 hours before fixation. pH was measured in the media after drug addition to ensure no significant deviations.
(§4) After 48 hours of treatment with salicylates, primary VS and SC cultures were fixed for BrdU staining, to visualize proliferation, or TUNEL staining, to visualize cell death. The same methodology as described in Example 1 was utilized.
To understand cross-talk between HGF and VEGF-A pathway, cultured VS cells were incubated with Life Technologies silencer select siRNAs targeting VEGFA (s461) or MET (s8700). To understand whether HGF signaling contributed to VS proliferation, cultured VS cells were treated with MET inhibitor SU11274 (Sigma-Aldrich, MO, #S9820). Seventy-two hours after siRNA treatment or 12 hours after treatment with SU11274 (2 μM), cells were incubated with 10 μg/mL BrdU (Life Technologies, NY, # B23151) for 20 hours before fixation.

[2] = tested on: primary VS cells; experiment: TUNEL cell death assay in primary VS cultures; format: cell-based, human; settings: 48 hours
Protocol: Rate of apoptosis in 6 VS cultures was assessed and correlated with tumor growth in vivo and tumor volume. […] Apoptosis was measured using terminal deoxynucleotidyl transferase dUTP nick end labeling (TUNEL, Roche Applied Sciences, NY) following manufacturer's instructions. Briefly, immunofluorescence protocol was followed as described under ‘Immunofluorescence,’ until fixations, then the cells were washed with PBS thrice and incubated in 1% Triton-X for 10 minutes on shaker. The cells were washed with PBS once and incubated in TUNEL mix for 1 hour at 37° C., then for 30 minutes at RT on shaker. The cells were then incubated in rhodamine phalloidin (Life Technologies, NY, 1:40) and Hoechst stain for 20 minutes, washed with PBS thrice and mounted onto slides for imaging. TUNEL and Hoechst stained nuclei were counted in >3 fields and the ratio of TUNEL positive to Hoechst positive nuclei was used to determine apoptosis rate in vitro. A positive control of 10 minutes-DNAse (Roche Applied Sciences, NY) treatment prior to TUNEL labeling was utilized.
For siRNA treatment, cultured primary VS cells or HEI-193 cells were placed in antibiotic and serum free media overnight. The next day, the cells were incubated with Life Technologies siRNAs targeting NF-κB genes RELA and NF-κB1, with control cells being treated with vehicle only (Lipofectamine RNAiMax), for 5 days. Some cultures were also incubated with a fluorescent random Oligo (Life Technologies) along with vehicle to assess transfection efficiency. siRNA experiments were performed in antibiotic and serum free media.
BAY11 or curcumin, diluted in 100% DMSO, were mixed to the accurate concentrations in warmed media and applied to the cultures (with DMSO concentration in media being 1% maximum), alongside a no-treatment control receiving media alone with appropriate corresponding DMSO levels.
After 48 hours of treatment, primary VS and Schwann cultures were fixed for BrdU staining, to visualize proliferation, or TUNEL staining, to visualize cell death.
After 48 hours of treatment with salicylates, primary VS and SC cultures were fixed for BrdU staining, to visualize proliferation, or TUNEL staining, to visualize cell death.

[3] = tested on: primary SCs; experiment: BrdU proliferation assay in primary Schwann cell cultures; format: cell-based, human; settings: 48 hours
Protocol: Proliferation rate of 12 VS cultures was assessed and correlated with the tumor volume in the latest gadolinium enhanced T1-weighted MRI scan prior to surgical resection, and with tumor growth in vivo, measured as changes in the tumor's volume over time calculated from serial MRI scans. Tumor growth was standardized by dividing the growth rate by the initial tumor volume. Separate analyses were performed for solid tumors, which generally account for approximately 96% of VSs (Charabi et al., 1994), versus all studied tumors, which included 4 out of 13 total tumors with a visible cystic component, because cystic components could misrepresent true tumor volume (Charabi et al., 1994). To determine the level of cell proliferation in the cultures, Bromodeoxyuridine (BrdU) was added to the cells at a concentration of 10 μg/ml 20 hours before the cells were fixed. The cells were kept in the dark after the addition of BrdU Immunofluorescence protocol was followed as described under ‘Immunofluorescence,’ and cell and nuclear membranes were permeablized by incubation in 1% Triton-X for 10 minutes and by incubation in 2N Hydrochloric acid for 20 minutes, respectively, after fixation. Primary antibody against BrdU (AbD Serotec, NC, 1:200) and anti-rat IgG (Life Technologies, NY, 1:1000) were used. BrdU- and Hoechst-stained nuclei were counted in 3-5 fields and the ratio of BrdU positive to Hoechst positive nuclei was used to determine the proliferation rate in vitro.
as §1, §2, §3, §4

[4] = tested on: COX-2; settings: 5 mM, 48 hours, VS culture media
Protocol: Prostaglandin (PTG) E2 was assayed in the media of VS cultures using the Prostaglandin E2 Parameter Assay Kit (R&D Systems, KGE004B). The media was collected after 48 hours of treatment from non-treated and treated cultured cells. Manufacturer's instructions were closely followed.
as §3

[5] = tested on: sporadic VS; settings: retrospective study, serial MRI scans (Kandathil et al., 2014); cited from earlier work
[6] = tested on: cochlear explant cultures (hair cells and neurites); experiment: Murine cochlear explant culture, hair cell, neurite and fiber damage counts; format: cell-based, CBA/CaJ mice; settings: for number of IHCs per 100 μm length / number of OHCs / number of neurites / severity of fiber disorganization / damage: recombinant human protein 5 μg/mL, 48 hours; for severity of fiber disorganization / damage: scale 0 to 2
Excerpt: To develop an animal model to study hearing loss due to VS, cochlear explant cultures were established from postnatal CBA/CaJ mice aged P3-P5 (Jackson Laboratory, ME). Briefly, after decapitating the mouse, temporal bones were dissected from the skull in Hank's Balanced Salt Solution (Life Technologies, NY). The otic capsule encasing the cochlea was dissected out from each temporal bone. The otic capsule was carefully stripped away and the spiral ligament was peeled away from the entire cochlea, starting from the base. The basal turn of cochlea was then isolated using the dissecting knife (Fine Science Tools, CA), discarding the apical turn hook region. The tectorial membrane and the Reissner's membrane were removed, leaving the organ of Corti intact with the spiral ganglion neuron region. This explant was cultured onto a 10 mm glass coverslip coated with CellTak (BD Biosciences, CA, #354241) in a 35 mm culture dish with 4 wells. Cells were cultured in 98% DMEM, 1% ampicillin and 1% N2 supplement.
To assess FGF2's otoprotective effect, cochlear explant cultures were treated with recombinant human FGF2±gentamicin. After culturing the explants overnight, media fortified with FGF2 (100 ng/mL) was applied. Twenty-four hours later media fortified with gentamicin (1 mM) and FGF2 (100 ng/mL) was applied. […] Cochlear explants were fixed after an additional 24 hours of treatment, with total time being 48 hours.
After treatment, the explants were fixed and stained with antibodies against myosin 7A (Myo7A, Proteus Biosciences, CA) and β-tubulin (Tuj1, Covance, MA) to identify hair cells (HCs) and neurons, respectively. The same immunofluorescence protocol as described in Example 1 was used, with the exceptions of omission of […] HCl incubation, usage of 5% NHS with 1% Triton-X for blocking solution and 1% NHS with 0.4% Triton-X solution for primary antibody incubation at room temperature (RT). Secondary antibodies (Alexa Flour 555 anti-mouse and Alexa Four 488 anti-rabbit) were purchased from Life Technologies. Cochlear explants were imaged using a Leica TCS SP5 Confocal microscope. Zoomed-in pictures for the region of organ of Corti, including neurites, were merged in a z-stack to obtain a z-axis projection image in the Leica software. The number of hair cells (HCs) and neurites were manually counted per 100 μm length along the cochlea, with 1-2 samplings per specimen.
The same general methodology for murine cochlear explant cultures as described in Example 5 was utilized. Cochlear explant cultures were established from P2-P3 mice. Importantly, instead of only culturing the basal turn, the apical turn was also isolated, providing two pieces per cochlea with a greater frequency range. After approximately 12 hours, the cochlear explant cultures were treated for 48 hours with tumor secretions diluted to half their concentration. The formulation was 46.5% tumor-conditioned DMEM, 46.5% plain DMEM, 5% FBS, 1% ampicillin and 1% N2 supplement. Cochlear explants were treated with control media in parallel, being 46.5% DMEM incubated without tumor, 46.5% plain DMEM, 5% FBS, 1% ampicillin and 1% N2 supplement. All reagents were purchased from Life Technologies, NY. Osmolality in the solutions was measured in samples using a vapor-pressure osmometer (standardized with 290 mOsm/kg of 0.1567M sodium chloride solution) before applying them onto cochlear explants. Extra formulation for each VS secretion was made to be tested on Milliplex arrays and ELISA. Milliplex array, containing FGF2, VEGF-A and HGF beads (Millipore) and human TNFα ELISA (R&D Systems) were conducted as directed by the manufacturer on VS secretions prior to being applied onto the cochlear explant cultures.
Cochlear explants were fixed 48 hours after treatment and the same methodology for VS secretion application as described in Example 5 was utilized. […]

[7] = tested on: HGF; experiment: Mouse HGF ELISA on cochlear explants; format: cell-based; settings: recombinant human protein 5 μg/mL, 48 hours; control 48.1±17.0
Protocol: Recombinant human VEGF-A (R&D Systems), diluted in culture media to a 5 μg/mL concentration, was applied to cochlear explants for 48 hours. The explants were fixed and the same protocol as outlined previously was followed (Example 6). […] Plain media with neutralization VEGF-A antibody and VS secretions incubated with only goat IgGs (R&D Systems, MN) were prepared simultaneously as controls. Success of VEGF-A neutralization was confirmed using ELISA.
Human VEGF-A ELISA and mouse HGF ELISA kits were purchased from R&D systems and manufacturer's protocols were followed.

[8] = tested on: rat cochlear explants; settings: 1 mM (Zheng and Gao, 1996); cited from earlier work

In the case of CC(=O)Oc1ccccc1C(=O)O [aspirin], the “proliferation, of the NT cells” value ([1]; 1 mM) was 129.6±26.2%, the “proliferation, of the NT cells” value ([1]; 5 mM) was 19% and 19.3±5.5% and the cell death rate ([2]; 1 mM) was 0.6±0.3%. For the same molecule, the cell death rate ([2]; 5 mM) was 2.8±2.2%, the “normalized proliferation rate, of the NT cells” value ([3]; 1 mM) was 124.4±72.9% and the “proliferation, of the NT cells” value ([3]; 5 mM) was 198.1±141.3%. For the same molecule, the “secreted PTG levels, of NT cells” value [4] was 3.1% and the “probability of VS growth in comparison to VS patients not taking aspirin” value [5] was “approximately half”.
For TNFα, the “number of IHCs per 100 μm length” value ([6]; apical turn) was 13.2±1.0 per 100 μm, the “number of OHCs” value ([6]; apical turn) was 39.1±2.2 per 100 μm and the number of neurites ([6]; apical turn) was 14.3±2.9 per 100 μm. For the same molecule, the “severity of fiber disorganization / damage” value ([6]; apical turn) was 0.2±0.5, the “number of IHCs per 100 μm length” value ([6]; basal turn) was 12.1±2.8 per 100 μm and the “number of OHCs” value ([6]; basal turn) was 31.8±14.9 per 100 μm. For the same molecule, the number of neurites ([6]; basal turn) was 11.3±2.4 per 100 μm, the “severity of fiber disorganization / damage” value ([6]; basal turn) was 0.8±0.4 and the “secreted HGF levels in cochlear explants” value [7] was “did not lead to changes”.
For gentamicin, the “number of neurites per 100 μm” value ([6]; 1 mM gentamicin, basal turn, NT 13.1±1.7) is listed as 7.3±2.3 per 100 μm, the “total number of HCs per 100 μm length” value ([6]; 1 mM gentamicin, basal turn, NT 49.1±8.7) is listed as 10.4±7.0 per 100 μm and the HC loss [8] is listed as “almost complete HC loss”. For the same molecule, the neurites lost [8] was 25%.
